≈ marks a conversion by molar mass, not a printed value. Like-named read-outs stand apart in the source and are kept apart here. Starred links: 1 amine or outer side, 2 acyl side, 3 side chain; linkers in the order of their positions; H or OH if unused. Non-standard residues stand in square brackets, D forms with d. Residues, ends and D or L forms follow the SMILES beside them. *: point of attachment. 1Nal = N[C@@H](Cc1cccc2ccccc12)C(=O)O; Ethylenediamine = C(CN[*:2])N[*:1]; Lauroyl = CCCCCCCCCCCC(=O)*; Decanoyl = CCCCCCCCCC(=O)*; Octanoyl = CCCCCCCC(=O)*; Hexanoyl = CCCCCC(=O)*
What was measured:
Format in all cases: cell-based
[1] = system: Staphylococcus epidermidis ATCC 12228; experiment: MIC, NCCLS M7-A6 broth microdilution (Table 9, no superscript)
Procedure, shortened: (§1)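 MIC, read as the lowest peptide concentration without visible growth compared with peptide-free wells, after overnight incubation at 37° C. Wells held cation-adjusted Mueller Hinton broth and a final inoculum of 5×10^5 to 1×10^6 CFU/mL from log-phase culture.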

[2] = system: Escherichia coli ATCC 25922; experiment: as above
Procedure, shortened: as §1

Salmonella dublin (Lane) = experiment: as above
Procedure, shortened: as §1

[3] = system: Pseudomonas aeruginosa ATCC 27853; experiment: as above
Procedure, shortened: as §1

[4] = system: Staphylococcus aureus ATCC 29213; experiment: MIC, NCCLS M7-A6 broth microdilution, cation-adjusted Mueller Hinton broth (Table 9, no superscript)
Procedure, shortened: as §1

[5] = system: Propionibacterium acnes ATCC 6919; experiment: MIC, agar dilution method NCCLS M11-A6, Brucella agar, anaerobic (Table 9, superscript c); settings: ATCC 6919
Protocol: A bacterial suspension was prepared to allow for a final inoculum on the plate of 1.5×10^8 CFU/milliliter. After the suspension absorbed into the agar surface, the plates were incubated for 48-96 hours at 37° C. in a GasPak anaerobic chamber. The lowest concentration of peptide that contained no colony growth on the agar plate was determined as the MIC. MIC values that utilized this method of MIC determination are indicated in Table 9 with a superscript letter “c.”

[6] = system: Candida albicans ATCC 18804; experiment: MIC in yeasts, NCCLS M27-A2 broth microdilution, RPMI 1640 (Table 9, letter e); settings: letter e: NCCLS M27-A2 broth microdilution, RPMI 1640
Protocol: Briefly, RPMI 1640 supplemented with glutamine and phenol red as a pH indicator was used in the broth microdilution method. A 96-well plate was inoculated so that the final inoculum of yeast for each well contained between 0.5×10^3 and 2.5×10^3 CFU/milliliter. […] Plates were incubated for 24 to 48 hours at 37° C. The lowest concentration of peptide that contained no visible growth was determined as the MIC. MIC values that utilized this method of MIC determination are indicated in Table 9 with a subscript letter “e.” “Peptide Number” corresponds to peptide compositions and corresponding designations in Table 3.

[7] = no superscript: NCCLS M7-A6 broth microdilution

Row | Compound | MIC S. epidermidis ([1]; ATCC 12228) [µg/mL] | MIC E. coli ([2]; ATCC 25922) [µg/mL] | MIC S. dublin (Salmonella dublin (Lane)) [µg/mL] | MIC P. aeruginosa ([3]; ATCC 27853) [µg/mL] | MIC S. aureus ([4]; ATCC 29213) [µg/mL] | MIC P. acnes [5] | MIC S. epidermidis [1, 7] [µg/mL] | MIC E. coli [2, 7] [µg/mL] | MIC S. dublin (Salmonella dublin (Lane); [7]) [µg/mL] | MIC P. aeruginosa [3, 7] [µg/mL] | MIC S. aureus [4, 7] [µg/mL] | MIC C. albicans [6] [e ug/mL]
1 | CCCCCCCCCCCC(=O)N[C@@H](CCCNC(=N)N)C(=O)N[C@@H](CO)C(=O)N[C@@H](CCCNC(=N)N)C(=O)N[C@@H](Cc1c[nH]c2ccccc12)C(=O)N[C@@H](CCCNC(=N)N)C(=O)N[C@@H](CC(=O)O)C(=O)N[C@@H](Cc1cccc2ccccc12)C(=O)N[C@@H](C)C(=O)N[C@@H](CCCNC(=N)N)C(=O)N[C@@H](CC(N)=O)C(=O)N[C@@H](Cc1ccccc1)C(=O)N[C@@H](CCSC)C(=O)N[C@@H](CCCNC(=N)N)C(N)=O [Peptide 150, Lauryl-RSRWRDZARNFMR-NH2 Z = 1-naphthylalanine] (Lauroyl-RSRWRD[1Nal]ARNFMR-NH2) | 4 (≈ 1.97 µM) | 64 (≈ 31.5 µM) | 32 (≈ 15.8 µM) | >64 | 8 (≈ 3.94 µM) | >64c ug/mL |  |  |  |  |  | 
2 | CCCCCCCCCCCC(=O)N[C@@H](CCCNC(=N)N)C(=O)N[C@@H](Cc1c[nH]c2ccccc12)C(=O)N[C@@H](CCCNC(=N)N)C(=O)N[C@@H](CC(=O)O)C(=O)N[C@H](C(=O)N[C@@H](C)C(=O)N[C@@H](CCCNC(=N)N)C(=O)N[C@@H](CC(N)=O)C(=O)N[C@@H](Cc1ccccc1)C(=O)N[C@@H](CC(C)C)C(=O)N[C@@H](CCCNC(=N)N)C(N)=O)C(C)C [Peptide 163, Lauryl-RWRDVARNFLR-NH2] (Lauroyl-RWRDVARNFLR-NH2) | 8 (≈ 4.79 µM) | 16 (≈ 9.58 µM) | 8 (≈ 4.79 µM) | >64 | 4 (≈ 2.4 µM) | >64c ug/mL |  |  |  |  |  | 
3 | CCCCCCCC(=O)NCCNC(=O)[C@H](CCCNC(=N)N)NC(=O)[C@H](CC(C)C)NC(=O)[C@H](Cc1ccccc1)NC(=O)[C@H](CC(N)=O)NC(=O)[C@H](CCCNC(=N)N)NC(=O)[C@H](C)NC(=O)[C@@H](NC(=O)[C@H](CC(=O)O)NC(=O)[C@H](CCCNC(=N)N)NC(=O)[C@H](Cc1c[nH]c2ccccc12)NC(=O)[C@H](CCCNC(=N)N)NC(=O)[C@H](CO)NC(=O)[C@@H](N)CCCNC(=N)N)C(C)C [Peptide 169, H2N-RSRWRDVARNFLR-Ethylamidooctanyl] (H-RSRWRDVARNFLR-{Ethylenediamine-Octanoyl}; C-terminus assumed) | 1 (≈ 0.526 µM) | 2 (≈ 1.05 µM) | 8 (≈ 4.21 µM) | 4 (≈ 2.1 µM) | 4 (≈ 2.1 µM) | 64c ug/mL |  |  |  |  |  | 
4 | CCCCCCCCCC(=O)N[C@H](CCCNC(=N)N)C(=O)N[C@H](CO)C(=O)N[C@H](CCCNC(=N)N)C(=O)N[C@H](Cc1c[nH]c2ccccc12)C(=O)N[C@H](CCCNC(=N)N)C(=O)N[C@H](CC(=O)O)C(=O)N[C@@H](C(=O)N[C@H](C)C(=O)N[C@H](CCCNC(=N)N)C(=O)N[C@H](CC(N)=O)C(=O)N[C@H](Cc1ccccc1)C(=O)N[C@H](CC(C)C)C(=O)N[C@H](CCCNC(=N)N)C(N)=O)C(C)C [Peptide 190, Decanyl-rsrwrdvarnflr-NH2] (Decanoyl-[dR][dS][dR][dW][dR][dD][dV][dA][dR][dN][dF][dL][dR]-NH2) | 2 (≈ 1.06 µM) | 4 (≈ 2.12 µM) |  | 8 (≈ 4.24 µM) | 8 (≈ 4.24 µM) | 4 µg/mL (≈ 2.12 µM) |  |  |  |  |  | 
5 | CCCCCC(=O)N[C@@H](CCCNC(=N)N)C(=O)N[C@@H](CO)C(=O)N[C@@H](CCCNC(=N)N)C(=O)N[C@@H](Cc1c[nH]c2ccccc12)C(=O)N[C@@H](CCCNC(=N)N)C(=O)N[C@@H](CC(=O)O)C(=O)N[C@H](C(=O)N[C@@H](C)C(=O)N[C@@H](CCCNC(=N)N)C(=O)N[C@@H](CC(N)=O)C(=O)N[C@@H](Cc1ccccc1)C(=O)N[C@@H](CCSC)C(=O)N[C@@H](CCCNC(=N)N)C(N)=O)C(C)C [Peptide 202, Hexyl-RSRWRDVARNFMR-NH2] (Hexanoyl-RSRWRDVARNFMR-NH2) |  |  | >64 |  | >64 | >64c ug/mL |  |  |  |  |  | 
6 | Lauryl-dvarfm-NH2 [Peptide 125] |  |  |  |  |  |  | >64 | >64 | >64 | >64 | >64 | >64
7 | Lauryl-rsrwrdvarfm-NH2 [Peptide 115] |  |  |  |  |  | 4c ug/mL |  |  |  |  |  | 
